Test results as given in PMC8730469 (Bioorganic & Medicinal Chemistry Letters, 2022).

molecular target: T1, SARS-CoV-2 M^pro (Severe acute respiratory syndrome coronavirus 2, UniProt P0DTD1); assay: fast dilution experiment; conditions: Fig. S1 and Table S1

| Structure (SMILES) | reversibility of inhibition |
| --- | --- |
| O=C(Cn1sc2cccc(F)c2c1=O)Nc1ccccc1 [Compound 16b-3] | irreversible inhibitor |

molecular target: T1, SARS-CoV-2 M^pro; assay: not given; type: biochemical; conditions: not given

| Structure (SMILES) | inhibitory activity (in words) |
| --- | --- |
| O=c1[nH]sc2cc(F)ccc12 [Compound 3a] | reduced dramatically |
| COc1cccc2c(=O)n(CC(=O)Nc3ccccc3)sc12 [Compound 16b-9] | decreased the activity drastically |
| O=C(Cn1sc2c(C(F)(F)F)cccc2c1=O)Nc1ccccc1 [Compound 16b-13] | decreased the activity drastically |
| O=C(O)Cn1sc2cc(F)ccc2c1=O [Compound 13a] | reduced dramatically |
| Nc1cccc2c(=O)n(CC(=O)Nc3ccccc3)sc12 [Compound 16b-17] | decreased the activity drastically |
